# PubChem BioAssay AID1963430 (Molecular Pharmacology Branch, DTP, NCI, 2024)
# System: 521955-158-R2-J5-PDC complex spheroid growth, % test/control
# Assay: Anticancer human tumor 521955-158-R2-J5-PDC patient-derived pancreatic carcinoma cell line growth inhibition [Asc]
# Details: for IC50: curve of first compound; for viability, T/C: stronger effect = lower value
# How it was run: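 Tumor cells were grown as multicellular spheroids with stromal HUVEC and mesenchymal stem cells and treated singly or in combination. Concentrations fell in half-log steps from the clinical Cmax, or from 10 microM where none was known.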
# [1] = second compound 0.1 µM, first compound 0.0316 µM
# [2] = second compound 0.1 µM, first compound 0.1 µM
# [3] = second compound 0.1 µM, first compound 0.316 µM
# [4] = second compound 0.1 µM, first compound 1 µM
# [5] = second compound 0.1 µM, first compound 3.16 µM
# [6] = second compound 0.1 µM, first compound 10 µM
# [7] = second compound 0.316 µM, first compound 0.0316 µM
# [8] = second compound 0.316 µM, first compound 0.1 µM
# [9] = second compound 0.316 µM, first compound 0.316 µM
# [10] = second compound 0.316 µM, first compound 1 µM
# [11] = second compound 0.316 µM, first compound 3.16 µM
# [12] = second compound 0.316 µM, first compound 10 µM
# [13] = second compound 1 µM, first compound 0.0316 µM
# [14] = second compound 1 µM, first compound 0.1 µM
# [15] = second compound 1 µM, first compound 0.316 µM
# [16] = second compound 1 µM, first compound 1 µM
# [17] = second compound 1 µM, first compound 3.16 µM
# [18] = second compound 1 µM, first compound 10 µM
# [19] = second compound 3.16 µM, first compound 0.0316 µM
# [20] = second compound 3.16 µM, first compound 0.1 µM
# [21] = second compound 3.16 µM, first compound 0.316 µM
# [22] = second compound 3.16 µM, first compound 1 µM
# [23] = second compound 3.16 µM, first compound 3.16 µM
# [24] = second compound 3.16 µM, first compound 10 µM
# [25] = second compound 10 µM, first compound 0.0316 µM
# [26] = second compound 10 µM, first compound 0.1 µM
# [27] = second compound 10 µM, first compound 0.316 µM
# [28] = second compound 10 µM, first compound 1 µM
# [29] = second compound 10 µM, first compound 3.16 µM
# [30] = second compound 10 µM, first compound 10 µM
# 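Further: spheroids exposed to agents for 7 days before readout.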
# 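Wherever viability, T/C is given: 100% = DMSO vehicle control viability.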
smiles,measurement,setting,value
C#Cc1c(F)ccc2cc(O)cc(-c3ncc4c(N5CC6CCC(C5)N6)nc(OCC56CCCN5CC(F)C6)nc4c3F)c12 (stereo not given) + Cc1c(S(C)(=O)=O)c(-c2cc(F)cc(N3CCN(c4ccc(NS(=O)(=O)c5ccc(NC(CCN6CCC(C(=O)OCCCP(=O)(O)O)CC6)CSc6ccccc6)c(S(=O)(=O)C(F)(F)F)c5)cc4)CC3)c2)c(-c2ccc(Cl)cc2)n1C(C)C,IC50,second compound 0.1 µM,< 0.0316 µM
same,IC50,second compound 0.316 µM,< 0.0316 µM
same,IC50,second compound 1 µM,< 0.0316 µM
same,IC50,second compound 3.16 µM,< 0.0316 µM
same,IC50,second compound 10 µM,> 10 µM
same,"viability, T/C",[1],44.7%
same,"viability, T/C",[2],30.4%
same,"viability, T/C",[3],38.7%
same,"viability, T/C",[4],33.9%
same,"viability, T/C",[5],38.5%
same,"viability, T/C",[6],34%
same,"viability, T/C",[7],43.6%
same,"viability, T/C",[8],27.9%
same,"viability, T/C",[9],33.3%
same,"viability, T/C",[10],32.1%
same,"viability, T/C",[11],32.5%
same,"viability, T/C",[12],34.4%
same,"viability, T/C",[13],31.3%
same,"viability, T/C",[14],38.4%
same,"viability, T/C",[15],39.3%
same,"viability, T/C",[16],31.8%
same,"viability, T/C",[17],28.8%
same,"viability, T/C",[18],29.4%
same,"viability, T/C",[19],42.2%
same,"viability, T/C",[20],41.3%
same,"viability, T/C",[21],34.7%
same,"viability, T/C",[22],34.8%
same,"viability, T/C",[23],35.9%
same,"viability, T/C",[24],44.7%
same,"viability, T/C",[25],174%
same,"viability, T/C",[26],152%
same,"viability, T/C",[27],155%
same,"viability, T/C",[28],152%
same,"viability, T/C",[29],113%
same,"viability, T/C",[30],79.6%
C=C(F)C(=O)N1CCN(c2nc(OCC3CCCN3C)nc3c2CCN(c2cccc4cccc(Cl)c24)C3)CC1CC#N (stereo not given) + Cc1c(S(C)(=O)=O)c(-c2cc(F)cc(N3CCN(c4ccc(NS(=O)(=O)c5ccc(NC(CCN6CCC(C(=O)OCCCP(=O)(O)O)CC6)CSc6ccccc6)c(S(=O)(=O)C(F)(F)F)c5)cc4)CC3)c2)c(-c2ccc(Cl)cc2)n1C(C)C,IC50,second compound 0.1 µM,4.85 µM
same,IC50,second compound 0.316 µM,4.94 µM
same,IC50,second compound 1 µM,5.24 µM
same,IC50,second compound 3.16 µM,5.01 µM
same,IC50,second compound 10 µM,6.66 µM
same,"viability, T/C",[1],64.6%
same,"viability, T/C",[2],69.9%
same,"viability, T/C",[3],55.4%
same,"viability, T/C",[4],105%
same,"viability, T/C",[5],101%
same,"viability, T/C",[6],0.26%
same,"viability, T/C",[7],69%
same,"viability, T/C",[8],76.6%
same,"viability, T/C",[9],81.7%
same,"viability, T/C",[10],84.3%
same,"viability, T/C",[11],95.5%
same,"viability, T/C",[12],0.21%
same,"viability, T/C",[13],105%
same,"viability, T/C",[14],82.9%
same,"viability, T/C",[15],69.2%
same,"viability, T/C",[16],80.8%
same,"viability, T/C",[17],106%
same,"viability, T/C",[18],0.21%
same,"viability, T/C",[19],62.4%
same,"viability, T/C",[20],80.9%
same,"viability, T/C",[21],69.5%
same,"viability, T/C",[22],104%
same,"viability, T/C",[23],99.2%
same,"viability, T/C",[24],0.23%
same,"viability, T/C",[25],190%
same,"viability, T/C",[26],168%
same,"viability, T/C",[27],195%
same,"viability, T/C",[28],188%
same,"viability, T/C",[29],138%
same,"viability, T/C",[30],2.12%
CCN1C(C(=O)NC23CCC(C(=O)O)(CC2)CC3)C(c2cccc(Cl)c2F)C2(C(=O)Nc3cc(Cl)ccc32)C12CCCCC2 (stereo not given) + Cc1c(S(C)(=O)=O)c(-c2cc(F)cc(N3CCN(c4ccc(NS(=O)(=O)c5ccc(NC(CCN6CCC(C(=O)OCCCP(=O)(O)O)CC6)CSc6ccccc6)c(S(=O)(=O)C(F)(F)F)c5)cc4)CC3)c2)c(-c2ccc(Cl)cc2)n1C(C)C,IC50,second compound 0.1 µM,> 3 µM
same,IC50,second compound 0.316 µM,> 3 µM
same,IC50,second compound 1 µM,> 3 µM
same,IC50,second compound 3.16 µM,> 3 µM
same,IC50,second compound 10 µM,> 3 µM
same,"viability, T/C","second compound 0.1 µM, first compound 0.00949 µM",70.7%
same,"viability, T/C","second compound 0.1 µM, first compound 0.03 µM",80.8%
same,"viability, T/C","second compound 0.1 µM, first compound 0.0949 µM",54.6%
same,"viability, T/C","second compound 0.1 µM, first compound 0.3 µM",95%
same,"viability, T/C","second compound 0.1 µM, first compound 0.949 µM",76.5%
same,"viability, T/C","second compound 0.1 µM, first compound 3 µM",92.6%
same,"viability, T/C","second compound 0.316 µM, first compound 0.00949 µM",73.3%
same,"viability, T/C","second compound 0.316 µM, first compound 0.03 µM",90.4%
same,"viability, T/C","second compound 0.316 µM, first compound 0.0949 µM",61.1%
same,"viability, T/C","second compound 0.316 µM, first compound 0.3 µM",72.8%
same,"viability, T/C","second compound 0.316 µM, first compound 0.949 µM",76%
same,"viability, T/C","second compound 0.316 µM, first compound 3 µM",89.6%
same,"viability, T/C","second compound 1 µM, first compound 0.00949 µM",66.2%
same,"viability, T/C","second compound 1 µM, first compound 0.03 µM",91%
same,"viability, T/C","second compound 1 µM, first compound 0.0949 µM",69.4%
same,"viability, T/C","second compound 1 µM, first compound 0.3 µM",74.1%
same,"viability, T/C","second compound 1 µM, first compound 0.949 µM",67.7%
same,"viability, T/C","second compound 1 µM, first compound 3 µM",64.5%
same,"viability, T/C","second compound 3.16 µM, first compound 0.00949 µM",111%
same,"viability, T/C","second compound 3.16 µM, first compound 0.03 µM",91.7%
same,"viability, T/C","second compound 3.16 µM, first compound 0.0949 µM",86.1%
same,"viability, T/C","second compound 3.16 µM, first compound 0.3 µM",100%
same,"viability, T/C","second compound 3.16 µM, first compound 0.949 µM",77%
same,"viability, T/C","second compound 3.16 µM, first compound 3 µM",76.7%
same,"viability, T/C","second compound 10 µM, first compound 0.00949 µM",151%
same,"viability, T/C","second compound 10 µM, first compound 0.03 µM",153%
same,"viability, T/C","second compound 10 µM, first compound 0.0949 µM",166%
same,"viability, T/C","second compound 10 µM, first compound 0.3 µM",169%
same,"viability, T/C","second compound 10 µM, first compound 0.949 µM",107%
same,"viability, T/C","second compound 10 µM, first compound 3 µM",112%
CNC(C)C(=O)NC1CN(S(=O)(=O)c2cccc(S(=O)(=O)N3CCC4CCC(C(=O)NC(c5ccccc5)c5ccccc5)N4C(=O)C(NC(=O)C(C)NC)C3)c2)CCC2CCC(C(=O)NC(c3ccccc3)c3ccccc3)N2C1=O (stereo not given) + Cc1c(S(C)(=O)=O)c(-c2cc(F)cc(N3CCN(c4ccc(NS(=O)(=O)c5ccc(NC(CCN6CCC(C(=O)OCCCP(=O)(O)O)CC6)CSc6ccccc6)c(S(=O)(=O)C(F)(F)F)c5)cc4)CC3)c2)c(-c2ccc(Cl)cc2)n1C(C)C,IC50,second compound 0.1 µM,> 1 µM
same,IC50,second compound 0.316 µM,> 1 µM
same,IC50,second compound 1 µM,> 1 µM
same,IC50,second compound 3.16 µM,> 1 µM
same,IC50,second compound 10 µM,> 1 µM
same,"viability, T/C","second compound 0.1 µM, first compound 0.00316 µM",75.6%
same,"viability, T/C","second compound 0.1 µM, first compound 0.01 µM",64%
same,"viability, T/C",[1],57.1%
same,"viability, T/C",[2],76.4%
same,"viability, T/C",[3],64%
same,"viability, T/C",[4],67.9%
same,"viability, T/C","second compound 0.316 µM, first compound 0.00316 µM",92.7%
same,"viability, T/C","second compound 0.316 µM, first compound 0.01 µM",86.7%
same,"viability, T/C",[7],89.3%
same,"viability, T/C",[8],74.6%
same,"viability, T/C",[9],91.1%
same,"viability, T/C",[10],87.6%
same,"viability, T/C","second compound 1 µM, first compound 0.00316 µM",97.2%
same,"viability, T/C","second compound 1 µM, first compound 0.01 µM",88.4%
same,"viability, T/C",[13],71.8%
same,"viability, T/C",[14],77.8%
same,"viability, T/C",[15],59.8%
same,"viability, T/C",[16],75.7%
same,"viability, T/C","second compound 3.16 µM, first compound 0.00316 µM",97.7%
same,"viability, T/C","second compound 3.16 µM, first compound 0.01 µM",75.9%
same,"viability, T/C",[19],47.5%
same,"viability, T/C",[20],80.6%
same,"viability, T/C",[21],65.8%
same,"viability, T/C",[22],60.4%
same,"viability, T/C","second compound 10 µM, first compound 0.00316 µM",192%
same,"viability, T/C","second compound 10 µM, first compound 0.01 µM",171%
same,"viability, T/C",[25],180%
same,"viability, T/C",[26],149%
same,"viability, T/C",[27],197%
same,"viability, T/C",[28],121%
